In patent US7112605B2, “Sulfonyl-containing 3,4-diaryl-3-pyrrolin-2-ones, preparation method, and medical use thereof” (Research Institute of Materia Medica Chinese Acadamy of …, priority 2002, dated 2006) one finds IC50, inhibition and COX-1/COX-2 data, which are given here for ten molecules.

A word on the pIC50: it is −log10 of the IC50, conventionally taken in molar units.

SMILES strings stand for the structures. pIC50: −log10 of the molar value. Like-named read-outs stand apart in the source and are kept apart here. Some results are limits rather than exact numbers.

Experiment [1] has as its target T1, Cyclooxygenase-2 (Mus musculus, UniProt Q05769).
T1 construct: endogenous in cells; host or cells: thioglycollate-elicited peritoneal macrophages of male C57BL-6J mice
T1 sequence (Q05769 18-604): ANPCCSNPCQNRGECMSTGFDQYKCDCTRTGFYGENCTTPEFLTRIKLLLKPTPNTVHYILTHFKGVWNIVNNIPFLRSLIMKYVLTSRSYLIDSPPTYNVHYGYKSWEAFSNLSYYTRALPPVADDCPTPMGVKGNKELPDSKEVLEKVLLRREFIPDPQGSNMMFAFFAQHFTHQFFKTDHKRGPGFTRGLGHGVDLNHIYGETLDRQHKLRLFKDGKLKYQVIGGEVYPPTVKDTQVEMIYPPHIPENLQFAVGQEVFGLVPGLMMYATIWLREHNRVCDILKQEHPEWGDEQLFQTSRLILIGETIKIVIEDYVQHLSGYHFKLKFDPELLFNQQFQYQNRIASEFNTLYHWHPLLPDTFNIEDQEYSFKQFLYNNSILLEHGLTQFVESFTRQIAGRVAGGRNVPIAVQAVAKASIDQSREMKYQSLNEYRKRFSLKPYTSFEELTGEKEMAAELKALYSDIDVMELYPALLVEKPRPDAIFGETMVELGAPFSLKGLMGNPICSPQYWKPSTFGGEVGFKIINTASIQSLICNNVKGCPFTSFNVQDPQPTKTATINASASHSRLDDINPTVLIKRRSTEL
Put plainly: COX-2 assay: LPS-stimulated PGE2 production in mouse peritoneal macrophages (RIA). Format: cell-based, mice. As to conditions: for pIC50: mouse peritoneal macrophages, LPS 1 mg/L 9 h, PGE2 by RIA; for COX-1/COX-2: ratio of IC50 COX-1 to IC50 COX-2. As for the experimental part: Cell culture: Adherent macrophages were harvested from the peritoneal cells of male mice (C57BL-6J, Level 2, from Experiment Animal Center, Academy of Military Medical Science) 3 d after the injection (ip) of brewer thioglycollate medium (5 mL/100 g body weight). […] After settlement for 2˜3 h, non-adherent cells were washed by D-Hanks' balanced salt solution. […] Cell viability was examined by trypan blue dye exclusion. All incubation procedures were performed with 5% CO2 in humidified air at 37° C.
COX-2 assay: Macrophages were incubated with test compound at different concentrations or solvent (Me2SO) for 1 h and were stimulated with LPS 1 mg/L for 9 h. The amount of PGE2 in supernatants was measured by RIA. The inhibitory ratio was calculated using the same formula as in COX-1 assay section. Cs, Ct, Cc refer to PGE2 concentration in supernatants of LPS, test compound, and control groups, respectively.
(§1) [formula] Cs, Ct, Cc refer to 6-keto-PGF1[…] concentration in supernatants of calcimycin, test compound, and control groups, respectively.
(§2) Statistical analysis: Data were expressed as the mean±SD of more than three independent experiments. Dose-inhibitory effect curves were fit through “uphill dose response curves, variable slope” using Prism, GraphPad version3.00: […]

Experiment [2] concerns the target T2, Cyclooxygenase-1 (Mus musculus, UniProt P22437).
T2 construct: endogenous in cells; host or cells: thioglycollate-elicited peritoneal macrophages of male C57BL-6J mice
T2 sequence (P22437 27-602): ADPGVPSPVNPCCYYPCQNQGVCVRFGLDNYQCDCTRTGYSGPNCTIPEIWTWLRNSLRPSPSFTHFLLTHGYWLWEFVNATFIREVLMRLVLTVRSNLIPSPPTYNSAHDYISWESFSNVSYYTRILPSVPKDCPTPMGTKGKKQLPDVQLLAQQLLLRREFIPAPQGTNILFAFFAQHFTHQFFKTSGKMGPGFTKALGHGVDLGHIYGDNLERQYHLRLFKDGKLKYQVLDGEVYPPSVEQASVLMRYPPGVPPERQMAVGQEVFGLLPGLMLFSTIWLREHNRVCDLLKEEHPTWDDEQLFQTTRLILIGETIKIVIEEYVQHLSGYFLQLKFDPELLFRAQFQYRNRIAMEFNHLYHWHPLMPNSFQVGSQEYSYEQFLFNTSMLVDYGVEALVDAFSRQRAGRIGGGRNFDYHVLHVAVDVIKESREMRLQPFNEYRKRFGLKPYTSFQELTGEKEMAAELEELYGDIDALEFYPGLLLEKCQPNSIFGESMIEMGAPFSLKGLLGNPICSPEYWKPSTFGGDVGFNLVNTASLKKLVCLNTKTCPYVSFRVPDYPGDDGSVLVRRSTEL
Put plainly: COX-1 assay: calcimycin-stimulated 6-keto-PGF1 production in mouse peritoneal macrophages (RIA). It is filed as cell-based, mice. As to conditions: calcimycin 1 μmol/L 1 h, 6-keto-PGF1 by RIA. The procedure:
Cell culture: Adherent macrophages were harvested from the peritoneal cells of male mice (C57BL-6J, Level 2, from Experiment Animal Center, Academy of Military Medical Science) 3 d after the injection (ip) of brewer thioglycollate medium (5 mL/100 g body weight). Shortly, peritoneal cells obtained from 3˜4 mice were mixed and seeded in 48 well cell culture cluster (Costar) at a cell density of 1×10^9 cell/L in RPMI-1640 supplemented with 5% (v/v) newborn calf serum, 100 ku/L penicillin and […] streptomycin. After settlement for 2˜3 h, non-adherent cells were washed by D-Hanks' balanced salt solution. Then macrophages were cultured in RPMI-1640 without serum. Almost all of adherent cells were macrophages as assessed by Giemsa staining. Cell viability was examined by trypan blue dye exclusion. All incubation procedures were performed with 5% CO2 in humidified air at 37° C.
COX-1: assay Macrophages were incubated with test compound at different concentrations or solvent (Me2SO) for 1 h and were stimulated with calcimycin 1 μmol·L^−1 for 1 h. The amount of 6-keto-PGF1[…] (a stable metabolite of PGI2) in supernatants was measured by RIA according to manufacturer's guide. The inhibitory ratio was calculated as
as §1, §2

For experiment [3], the system named is rat carrageenan-induced foot pad edema. In words: Rat carrageenan-induced foot pad edema assay. As to conditions: 10 mg/kg oral. It is filed as in vivo, rats. The procedure:
Male Sprgue-Dawley rats (190–220 g) were fasted with free access to water at least 16 h prior to experiments. The rats were dosed orally with a 1 ml suspension of test compound in vehicle (0.5% methyl cellulose and 0.025% Tween-20) or with vehicle alone. One hour later a subplantar injection of 0.1 ml of 1% solution of caarageenan in 0.9% strile saline was administered to the right hind foot pad. Paw volume was measured with a displacement plethysmometer 2, 3, and 4 h after caarageenan injection.

[4] abbreviates: 3 h after carrageenan, read-out: inhibitory percentage of edema, 3 hr.
Where [5] appears, read: 4 h after carrageenan, read-out: inhibitory percentage of edema, 4 hr.

For the molecule `CS(=O)(=O)c1ccc(C2=C(c3cccc(Cl)c3)CN(C3CC3)C2=O)cc1` [Example 108, N-Cyclopropyl-3-(4-methylsulfonylphenyl)-4-(3-chlorophenyl)-2,5-dihydropyrrole-2-one], the negative logarithm of the IC50 (pIC50) in experiment [1] is 6.11; in experiment [2] it was below 5.00. For the same molecule, the inhibition at 10 mg/kg in experiment [3] (setting [4]) is 36.4%; in experiment [3] (setting [5]) it was 43.5%.

For the molecule `CCCN1CC(c2ccc(S(C)(=O)=O)cc2)=C(c2ccccc2)C1=O` [Example 115, N-Propyl-3-phenyl-4-(4-methylsulfonylphenyl)-2,5-dihydropyrrole-2-one], the results for the pIC50 in experiment [1] and in experiment [2] were 7.71 and 6.83, respectively. Also, in experiment [1], the COX-1/COX-2 stood at 7.6. In addition, the inhibition at 10 mg/kg in experiment [3] (setting [4]) amounted to 22.8%; in experiment [3] (setting [5]) it was 27.2%.

As for `CN1CC(c2ccc(S(C)(=O)=O)cc2)=C(c2ccc(Cl)cc2)C1=O` [Example 117, N-Methyl-3-(4-chlorophenyl)-4-(4-methylsulfonylphenyl)-2,5-dihydropyrrole-2-one], the values for the negative-log IC50 (pIC50) in experiment [1] and in experiment [2] were 7.62 and 6.80, respectively. Moreover, the COX-1/COX-2 in experiment [1] came out at 6.6. Also, the inhibition at 10 mg/kg in experiment [3] (setting [4]) is 48.2%; in experiment [3] (setting [5]), 59.3%.

For `CN1CC(c2ccc(S(C)(=O)=O)cc2)=C(c2ccc(Br)cc2)C1=O` [Example 119, N-Methyl-3-(4-bromophenyl)-4-(4-methylsulfonylphenyl)-2,5-dihydropyrrole-2-one], the negative-log IC50 (pIC50) is 7.93 in experiment [1] and 7.24 in experiment [2]. Moreover, the COX-1/COX-2 in experiment [1] came to 4.9. The inhibition at 10 mg/kg in experiment [3] (setting [4]) is 48%; in experiment [3] (setting [5]), 49.8%.

On to `CN1CC(c2ccc(S(C)(=O)=O)cc2)=C(c2ccc(F)cc2)C1=O` [Example 120, N-Methyl-3-(4-fluorophenyl)-4-(4-methylsulfonylphenyl)-2,5-dihydropyrrole-2-one], for which the negative logarithm of the IC50 (pIC50) in experiment [1] was 7.86; in experiment [2], 6.70. In experiment [1], the COX-1/COX-2 turned out to be 14.5. Also, the values for the inhibition at 10 mg/kg in experiment [3] (setting [4]) and in experiment [3] (setting [5]) were 39.2% and 26.2%, respectively.

`CCCN1CC(c2ccc(S(C)(=O)=O)cc2)=C(c2ccc(C)cc2)C1=O` [Example 122, N-Propyl-3-(4-methylphenyl)-4-(4-methylsulfonylphenyl)-2,5-dihydropyrrole-2-one]: the figures for the pIC50 in experiment [1] and in experiment [2] were 7.82 and 7.04, respectively. Moreover, the inhibition at 10 mg/kg in experiment [3] (setting [4]) is 57.2%; in experiment [3] (setting [5]), 59.3%.

Take `CCCN1CC(c2ccc(S(C)(=O)=O)cc2)=C(c2ccc(F)cc2)C1=O` [Example 123, N-Propyl-3-(4-fluorophenyl)-4-(4-methylsulfonylphenyl)-2,5-dihydropyrrole-2-one]: the pIC50 in experiment [1] was 7.54; in experiment [2], 6.30. The inhibition at 10 mg/kg is 49.6% in experiment [3] (setting [4]) and 50.3% in experiment [3] (setting [5]).

Regarding `CCCN1CC(c2ccc(S(C)(=O)=O)cc2)=C(c2ccc(Cl)cc2)C1=O` [Example 124, N-Propyl-3-(4-chlorophenyl)-4-(4-methylsulfonylphenyl)-2,5-dihydropyrrole-2-one], the pIC50 in experiment [1] was 7.61; in experiment [2] it was 8.10. For the same molecule, the inhibition at 10 mg/kg in experiment [3] (setting [4]) amounted to 39.4%; in experiment [3] (setting [5]) it was 32.7%.

On to `Cc1ccc(C2=C(c3ccc(S(C)(=O)=O)cc3)CN(C3CC3)C2=O)cc1` [Example 125, N-Cyclopropyl-3-(4-methylphenyl)-4-(4-methylsulfonylphenyl)-2,5-dihydropyrrole-2-one], for which the pIC50 is 7.02 in experiment [1] and 6.63 in experiment [2]. Besides, the COX-1/COX-2 in experiment [1] stood at 2.5. Also, the inhibition at 10 mg/kg in experiment [3] (setting [4]) is 34.1%; in experiment [3] (setting [5]), 31.1%.

Consider `CS(=O)(=O)c1ccc(C2=C(c3ccccc3)C(=O)OC2)cc1` [Rofecoxib, reference compound], for which the negative-log IC50 (pIC50) was 8.02 in experiment [1] and below 5.00 in experiment [2]. Besides, the inhibition at 10 mg/kg in experiment [3] (setting [4]) was determined as 45.9%; in experiment [3] (setting [5]), 50.2%.
